{"source": "ChEMBL document CHEMBL1130331", "about": "“Synthesis and hepatoprotective effects of soyasapogenol B derivatives” (1997)"}
{"test_system": "HepG2", "assay": "Tested in vitro for hepatoprotective effect of 10 ug/ml of compound on cell growth and lesions in Hep G2 cells treated with aflatoxin B1 (10 e -5 M)", "assay_type": "functional, Homo sapiens", "units": {"Protection": "%"}}
{"compound": "CC1(C)C[C@@H](O)[C@]2(C)CC[C@]3(C)C(=CCC4[C@@]5(C)CC[C@H](O)[C@](C)(CO)C5CC[C@]43C)[C@@H]2C1", "note": "(stereo partly drawn)", "Protection": 14}
{"compound": "CC(=O)O[C@H]1CC[C@@]2(C)C(CC[C@]3(C)C2CC=C2[C@@H]4CC(C)(C)C[C@@H](O)[C@]4(C)CC[C@]23C)[C@@]1(C)CO", "note": "(stereo partly drawn)", "Protection": 0}
{"compound": "CC(=O)O[C@@H]1CC(C)(C)C[C@H]2C3=CCC4[C@@]5(C)CC[C@H](O)[C@](C)(CO)C5CC[C@@]4(C)[C@]3(C)CC[C@@]12C", "note": "(stereo partly drawn)", "Protection": 11}
{"compound": "COC[C@]1(C)C2CC[C@]3(C)C(CC=C4[C@@H]5CC(C)(C)C[C@@H](O)[C@]5(C)CC[C@]43C)[C@@]2(C)CC[C@@H]1O", "note": "(stereo partly drawn)", "Protection": 48}
{"compound": "CC1(C)C[C@@H](O)[C@]2(C)CC[C@]3(C)C(=CCC4[C@@]5(C)CC[C@H](O)C(C)(C)C5CC[C@]43C)[C@@H]2C1", "note": "(stereo partly drawn)", "Protection": 19}
{"compound": "CO[C@@H]1CC(C)(C)C[C@H]2C3=CCC4[C@@]5(C)CC[C@H](O)[C@](C)(CO)C5CC[C@@]4(C)[C@]3(C)CC[C@@]12C", "note": "(stereo partly drawn)", "Protection": 9}
{"compound": "CO[C@H]1CC[C@@]2(C)C(CC[C@]3(C)C2CC=C2[C@@H]4CC(C)(C)C[C@@H](O)[C@]4(C)CC[C@]23C)[C@@]1(C)CO", "note": "(stereo partly drawn)", "Protection": 2}
{"compound": "CC1(C)CC[C@]2(C)CC[C@]3(C)C(=CCC4[C@@]5(C)CC[C@H](O)[C@](C)(CO)C5CC[C@]43C)[C@@H]2C1", "note": "(stereo partly drawn)", "Protection": 33}
{"compound": "CC(=O)OC[C@]1(C)C2CC[C@]3(C)C(CC=C4[C@@H]5CC(C)(C)C[C@@H](O)[C@]5(C)CC[C@]43C)[C@@]2(C)CC[C@@H]1O", "note": "(stereo partly drawn)", "Protection": 45}
{"compound": "CC1(C)C[C@@H](O)[C@]2(C)CC[C@]3(C)C(=CCC4[C@@]5(C)CCC[C@](C)(CO)C5CC[C@]43C)[C@@H]2C1", "note": "(stereo partly drawn)", "Protection": 0}
{"compound": "CC1(C)C[C@@H](O)[C@]2(C)CC[C@]3(C)C(=CCC4[C@@]5(C)CC[C@H](O)[C@](C)(C=O)C5CC[C@]43C)[C@@H]2C1", "note": "(stereo partly drawn)", "Protection": 32}
{"compound": "CC1(C)C[C@@H](O)[C@]2(C)CC[C@]3(C)C(=CCC4[C@@]5(C)CC[C@H](O)[C@](C)(C(=O)O)C5CC[C@]43C)[C@@H]2C1", "note": "(stereo partly drawn)", "Protection": 44}
{"test_system": "HepG2", "assay": "Tested in vitro for hepatoprotective effect of 20 ug/ml of compound on cell growth and lesions in Hep G2 cells treated with aflatoxin B1 (10 e -5 M)", "assay_type": "functional, Homo sapiens", "units": {"Protection": "%"}}
{"compound": "CC1(C)[C@@H](O[C@H]2O[C@H](C(=O)O)[C@@H](O)[C@H](O)[C@H]2O[C@@H]2O[C@H](C(=O)O)[C@@H](O)[C@H](O)[C@H]2O)CC[C@]2(C)[C@H]3C(=O)C=C4[C@@H]5C[C@@](C)(C(=O)O)CC[C@]5(C)CC[C@@]4(C)[C@]3(C)CC[C@@H]12", "note": "[GLYCYRRHIZIN]", "Protection": 15}
